Test results reported in patent publication US7825139B2, “Compounds and methods for selective inhibition of dipeptidyl peptidase-IV” (Forest Laboratories Holdings Limited (BM), priority 2005, dated 2010).

Columns and labels:
DPP-IV = biological target: T1, DPP-IV (Sus scrofa, UniProt P22411); experiment: DPP-IV fluorometric enzyme inhibition assay (Gly-Pro-AMC); type: biochemical, porcine
T1 construct: from tissue; host or cells: porcine
Method: The following methods were used to measure the activities of the compounds of the invention which inhibit the enzymatic activity of DPP-IV. The compounds of the invention are tested for their ability to inhibit the enzyme activity of purified DPP-IV. Briefly, the activity of DPP-IV is measured in vitro by its ability to cleave the synthetic substrate Gly-Pro-AMC. Cleavage of Gly-Pro-AMC by DPP-IV liberates the product AMC (7-amino-4-methyl coumarin), whose rate of appearance is directly proportional to the enzyme activity. Inhibition of the enzyme activity by specific enzyme inhibitors slows down the generation of AMC. […] The accumulation of AMC is measured fluorometrically. […]
Thus, DPP-IV enzyme activity was determined by a fluorometric assay with the substrate Gly-Pro-AMC which is cleaved by DPP-IV to release the fluorescent AMC leaving group. Free AMC (7-amino-4-methyl coumarin) was measured using an excitation wavelength of 380 nm and an emission wavelength of 460 nm with a Victor-II fluorescent reader. […] After 10-minutes substrate was added (10 μl) and allowed to react for 20-minutes at 26° C. before free AMC was measured. IC50 values were determined in triplicate, using a minimum of six different inhibitor concentrations. IC50 values were calculated using Nonlinear Regression Analysis (GraphPad, Prism, San Diego, Calif.). […]

DPP-IX = biological target: T2, DPP-IX (Homo sapiens, UniProt Q86TI2); experiment: DPP-IX IC50 assay (Ala-Pro AMC); type: biochemical
T2 construct: The full length cDNAs for human DPP-VII, DPP-VIII, DPP-IX, and FAP were obtained from Open Biosystems; 6xHis (C); made in house
Method: Materials. S9 insect cells and Sf-900 II SFM media were from Invitrogen. Anti-FLAG M2 immunoaffinity gel was from Sigma. Gly-Pro-AMC, Lys-Pro AMC, and Ala-Pro AMC were from Enzyme Systems. IC50 calculations were performed by non-linear regression analysis using Prism software (GraphPad). Preparation of DPP-VII, DPP-VIII, DPP-IX, and FAP baculovirus constructs. The full length cDNAs for human DPP-VII, DPP-VIII, DPP-IX, and FAP were obtained from Open Biosystems. The cDNAs were cloned into the pFastBac vector with the addition of an N-terminal FLAG tag on DPP-VII, C-terminal 6xHis tags on DPP-VIII and DPP-IX, and an N-terminal 6xHis tag on FAP (Sun 2002, Qi 2003, and Chen 2004). Baculovirus was prepared using the Bac-to-Bac Baculovirus Expression System (Invitrogen). The cDNAs in the final baculovirus constructs were sequence verified. Baculovirus expression. S9 cells were grown to mid log phase at 27C with shaking at 125 RPM and then adjusted to 2×10E6/ml just prior to baculovirus infection. Infection with DPP-VII, DPP-VIII, DPP-IX, and FAP baculoviral constructs were all performed at an MOI of 4. […] Recombinant DPPs were diluted in reaction buffer to give fluorescence values of 5000-20000 counts in the “enzyme only wells” 20 min after addition of substrate at 27° C. […] Fluorescence in each well was measured at settings of 380/460 nm. […]

dogs = experiment: Toxicity in dogs, escalated oral dose study; type: in vivo; conditions: at 2.0 mg/kg, within 2-4 hours of dosing
Method: The 2.0 mg/kg dose of compound 19 correlated with the time above the DPP-VIII IC90 but not with the time above DPP-IX IC90. By comparison, a previously known selective inhibitor (compound 10 in U.S. patent application Ser. […]

T1 sequence (P22411 whole entry): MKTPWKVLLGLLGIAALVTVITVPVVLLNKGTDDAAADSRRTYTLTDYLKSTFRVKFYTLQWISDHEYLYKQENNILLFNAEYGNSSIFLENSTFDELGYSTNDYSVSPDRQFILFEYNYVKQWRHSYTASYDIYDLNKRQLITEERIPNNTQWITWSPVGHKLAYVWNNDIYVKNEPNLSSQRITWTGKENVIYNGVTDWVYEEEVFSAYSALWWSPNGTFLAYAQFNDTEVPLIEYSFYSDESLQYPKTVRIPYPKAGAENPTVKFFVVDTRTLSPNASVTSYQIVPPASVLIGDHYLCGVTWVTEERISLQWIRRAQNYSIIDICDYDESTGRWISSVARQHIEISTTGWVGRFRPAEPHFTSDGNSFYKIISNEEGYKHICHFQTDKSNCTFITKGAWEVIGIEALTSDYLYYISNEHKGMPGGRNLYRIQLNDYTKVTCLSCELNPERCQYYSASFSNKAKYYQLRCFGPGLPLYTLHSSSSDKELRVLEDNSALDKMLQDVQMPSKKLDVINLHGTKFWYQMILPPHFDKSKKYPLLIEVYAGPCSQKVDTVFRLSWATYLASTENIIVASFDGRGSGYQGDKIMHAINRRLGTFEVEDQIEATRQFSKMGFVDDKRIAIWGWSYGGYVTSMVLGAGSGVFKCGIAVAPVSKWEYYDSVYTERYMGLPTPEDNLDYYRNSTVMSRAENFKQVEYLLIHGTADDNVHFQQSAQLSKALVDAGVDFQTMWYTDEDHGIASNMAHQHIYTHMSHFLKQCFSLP
T2 sequence (Q86TI2 whole entry): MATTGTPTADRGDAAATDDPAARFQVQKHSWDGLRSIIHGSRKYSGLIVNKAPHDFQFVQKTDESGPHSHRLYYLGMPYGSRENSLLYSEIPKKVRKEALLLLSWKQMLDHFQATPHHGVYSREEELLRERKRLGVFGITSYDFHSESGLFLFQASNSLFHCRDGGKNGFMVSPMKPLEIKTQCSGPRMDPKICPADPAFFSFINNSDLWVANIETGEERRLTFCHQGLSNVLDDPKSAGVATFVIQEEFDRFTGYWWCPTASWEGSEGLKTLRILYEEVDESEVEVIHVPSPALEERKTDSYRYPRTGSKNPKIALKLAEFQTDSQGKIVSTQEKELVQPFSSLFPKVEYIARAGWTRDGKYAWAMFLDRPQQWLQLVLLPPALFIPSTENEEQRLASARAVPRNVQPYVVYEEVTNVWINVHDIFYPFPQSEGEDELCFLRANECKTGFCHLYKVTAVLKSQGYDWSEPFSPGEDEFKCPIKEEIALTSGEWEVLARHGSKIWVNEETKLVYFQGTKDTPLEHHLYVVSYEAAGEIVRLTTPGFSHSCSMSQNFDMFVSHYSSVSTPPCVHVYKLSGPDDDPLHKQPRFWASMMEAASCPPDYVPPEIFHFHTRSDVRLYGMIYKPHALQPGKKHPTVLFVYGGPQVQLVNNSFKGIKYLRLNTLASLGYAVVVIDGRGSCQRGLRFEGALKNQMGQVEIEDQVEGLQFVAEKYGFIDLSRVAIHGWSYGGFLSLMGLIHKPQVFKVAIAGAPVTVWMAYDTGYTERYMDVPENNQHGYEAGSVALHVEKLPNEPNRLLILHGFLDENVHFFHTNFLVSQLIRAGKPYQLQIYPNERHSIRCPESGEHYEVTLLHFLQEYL

O=C(CNC1CCCC1)N1CCC[C@H]1B(O)O [Compound 19]
inhibition of DPP-IV (in words) (DPP-IV): potent inhibitor | inhibition of DPP-IX (in words) (DPP-IX): potent inhibitor | toxicity in dogs (dogs): severe emesis and diarrhea
